Results from paper PMC7481290, “Halogenation as a tool to tune antimicrobial activity of peptoids” (Scientific Reports, 2020).
Converted amounts (≈) assume the structure as drawn. Non-standard residues stand in square brackets, D forms with d. Residues, ends and D or L forms follow the SMILES beside them. Gly(Nα-4-Cl-benzyl) = O=C(O)CNCc1ccc(Cl)cc1; N(4-F-Bzl)Gly = O=C(O)CNCc1ccc(F)cc1; NBzl(4-I)Gly = O=C(O)CNCc1ccc(I)cc1; Nphe = O=C(O)CNCc1ccccc1; Nlys = NCCCCNCC(=O)O

Columns and labels:
[1] = test system: Methicillin-resistant S. aureus USA 300; assay type: cell-based, Staphylococcus aureus; settings: USA 300, 18 h
Experimental: (§1) Bacterial growth inhibition was determined by using broth microdilution according to the Clinical Laboratory Standards Institute[43]. The antibacterial activity of peptoids was tested against S. aureus ATCC 25923, ATCC29213, and methicillin resistant S. aureus USA 300, methicillin resistant S. epidermidis ATCC 51625, a biofilm producing methicillin resistant S. epidermidis ET-024[44], P. aeruginosa Pa01 (H103), and E. coli ATCC 25922. Bacteria, grown on agar plates for 18 h at 37 °C, were diluted to ∼1 × 10^8 CFU/mL in Mueller‐Hinton Broth II (MHB II). Twofold serial dilutions of peptoids in MHB II were inoculated with bacteria to achieve a final concentration of 5 × 10^5 CFU/mL in polypropylene 96 U‐well microtiter plates (Corning 3,897; ThermoFisher Scientific, Roskilde), followed by incubation at 37 °C in ambient air for 18 h. The MIC values were determined as the lowest concentration showing no visible bacterial growth. Experiments were performed twice (in technical triplicates) on 2 different days.

S. aureus ATCC 25923 = assay type: cell-based, Staphylococcus aureus; settings: for Minimal inhibitory concentration SA^a: ATCC 25923, 18 h
Experimental: as §1

S. aureus ATCC 29213 = assay type: cell-based, Staphylococcus aureus; settings: ATCC 29213, 18 h
Experimental: as §1

[2] = test system: Methicillin-resistant S. epidermidis ATCC 51625; assay type: cell-based, Staphylococcus epidermidis; settings: for MIC against MRSE: text b15, strain not named; for Minimal inhibitory concentration MRSE^e: ATCC 51625, 18 h
Experimental: as §1

[3] = test system: Methicillin-resistant S. epidermidis ET-024; assay type: cell-based, Staphylococcus epidermidis; settings: for Minimal inhibitory concentration MRSE^d: Methicillin-resistant ET-024, 18 h
Experimental: as §1

E. coli ATCC 25922 = assay type: cell-based, Escherichia coli; settings: ATCC 25922, 18 h
Experimental: as §1

[4] = test system: P. aeruginosa PA01 (H103); assay type: cell-based, Pseudomonas aeruginosa; settings: H103, 18 h
Experimental: as §1

[5] = test system: selected bacterial strains (S. aureus, S. epidermidis, E. coli, P. aeruginosa); assay type: cell-based
Experimental: All 36 peptoids were tested against seven bacterial strains: five Gram-positive (Staphylococcus aureus ATCC 25923 and ATCC 29213, methicillin-resistant Staphylococcus aureus USA 300, methicillin-resistant Staphylococcus epidermidis ET-024 and ATCC 51625) and two Gram-negative (Escherichia coli ATCC 25922, Pseudomonas aeruginosa PA01) (Table 1).
as §1

[6] = Critical aggregation concentration from SAXS fit analysis; assay type: physicochemical
Experimental: SAXS experiments of the 10-mer peptoids were performed at the automated BM29 bioSAXS beamline at the European Synchrotron Radiation Facility (ESRF) in Grenoble, France[45]. The data was obtained using an energy of 12.5 keV and a detector distance of 2.87 m, covering a q range ( q=4πsin(θ/2)/λ ), where θ is the scattering angle and λ is the X-ray wavelength) of about 0.0047 to 0.5 Å^−1. The data set was calibrated to an absolute intensity scale using water as a primary standard. 40 µL samples were run through a capillary using the flow mode of the automated sample changer. SAXS data was collected in ten successive frames of 0.5 s each to monitor radiation damage and the data reduction was done using the standard tool at BM29[47].
The SAXS experiments on the fully iodinated 6-, 8-, and 12-mers to determine the CAC of the compounds were performed using a Bruker NANOSTAR equipped with a microfocus X-ray source (IμS Cu, Incoatec, Germany) and a VÅNTEC-2000 detector. Raw scattering data was calibrated to absolute intensity scale using water as a primary standard and radially averaged in order to obtain the 1D scattered intensity profile as a function of the scattering vector, with a wavelength of 1.54 Å.
The modelling fit analysis of the scattering data is explained in detail in the supplementary information.

Compound | Minimal inhibitory concentration MRSA^c [1] | Minimal inhibitory concentration SA^a (S. aureus ATCC 25923) | Minimal inhibitory concentration SA^b (S. aureus ATCC 29213) | MIC against MRSE ([2]; values match ATCC 51625) | Minimal inhibitory concentration MRSE^d [3] | Minimal inhibitory concentration EC^f (E. coli ATCC 25922) | Minimal inhibitory concentration PA^g [4] | antimicrobial potency against the selected bacterial strains, in words [5] | fold increase of activity against S. aureus (S. aureus ATCC 25923; versus non-halogenated control of same length) | fold increase of activity against MRSE ([2]; versus non-halogenated control 1, values match ATCC 51625) | critical aggregation concentration (CAC) [6] | Minimal inhibitory concentration MRSE^e [2] | fold increase of activity against MRSE ([3]; versus non-halogenated control of same length, values match ET-024)
NCCCCNCC(=O)N(CC(=O)N(CCCCN)CC(=O)N(CC(=O)N(CCCCN)CC(=O)N(CC(N)=O)Cc1ccccc1)Cc1ccccc1)Cc1ccccc1 [Compound 1] (H-[Nlys][Nphe][Nlys][Nphe][Nlys][Nphe]-NH2) | > 512 µg/mL | > 512 µg/mL | > 512 µg/mL | 512 µg/mL (≈ 607 µM) | 512 µg/mL (≈ 607 µM) | > 512 µg/mL | > 512 µg/mL | inactive |  |  |  |  | 
NCCCCNCC(=O)N(CC(=O)N(CCCCN)CC(=O)N(CC(=O)N(CCCCN)CC(=O)N(CC(N)=O)Cc1ccc(I)cc1)Cc1ccc(I)cc1)Cc1ccc(I)cc1 [Compound 5] (H-[Nlys][NBzl(4-I)Gly][Nlys][NBzl(4-I)Gly][Nlys][NBzl(4-I)Gly]-NH2) | 4 µg/mL (≈ 3.28 µM) | 8 µg/mL (≈ 6.55 µM) | 4 µg/mL (≈ 3.28 µM) | 2 µg/mL (≈ 1.64 µM) | 4 µg/mL (≈ 3.28 µM) | 64 µg/mL (≈ 52.4 µM) | > 512 µg/mL |  | > 64 fold | 256 fold | 2.8 mg/mL |  | 
NCCCCNCC(=O)N(CC(=O)N(CCCCN)CC(=O)N(CC(=O)N(CCCCN)CC(=O)N(CC(=O)N(CCCCN)CC(=O)N(CC(N)=O)Cc1ccccc1)Cc1ccccc1)Cc1ccccc1)Cc1ccccc1 [Compound 10] (H-[Nlys][Nphe][Nlys][Nphe][Nlys][Nphe][Nlys][Nphe]-NH2) | > 512 µg/mL | > 512 µg/mL | > 512 µg/mL |  | 256 µg/mL (≈ 229 µM) | 256 µg/mL (≈ 229 µM) | > 512 µg/mL | inactive |  |  |  | 256 µg/mL (≈ 229 µM) | 
NCCCCNCC(=O)N(CC(=O)N(CCCCN)CC(=O)N(CC(=O)N(CCCCN)CC(=O)N(CC(=O)N(CCCCN)CC(=O)N(CC(N)=O)Cc1ccc(I)cc1)Cc1ccc(I)cc1)Cc1ccc(I)cc1)Cc1ccc(I)cc1 [Compound 14] (H-[Nlys][NBzl(4-I)Gly][Nlys][NBzl(4-I)Gly][Nlys][NBzl(4-I)Gly][Nlys][NBzl(4-I)Gly]-NH2) | 4 µg/mL (≈ 2.47 µM) | 8 µg/mL (≈ 4.93 µM) | 16 µg/mL (≈ 9.86 µM) |  | 2 µg/mL (≈ 1.23 µM) | 64 µg/mL (≈ 39.5 µM) | > 512 µg/mL |  |  |  | 1.4 mg/mL | 4 µg/mL (≈ 2.47 µM) | 128 fold
NCCCCNCC(=O)N(CC(=O)N(CCCCN)CC(=O)N(CC(=O)N(CCCCN)CC(=O)N(CC(=O)N(CCCCN)CC(=O)N(CC(=O)N(CCCCN)CC(=O)N(CC(N)=O)Cc1ccc(F)cc1)Cc1ccc(F)cc1)Cc1ccc(F)cc1)Cc1ccc(F)cc1)Cc1ccc(F)cc1 [Compound 20] (H-[Nlys][N(4-F-Bzl)Gly][Nlys][N(4-F-Bzl)Gly][Nlys][N(4-F-Bzl)Gly][Nlys][N(4-F-Bzl)Gly][Nlys][N(4-F-Bzl)Gly]-NH2) | 32 µg/mL (≈ 21.6 µM) | 64 µg/mL (≈ 43.1 µM) | 64 µg/mL (≈ 43.1 µM) |  | 4 µg/mL (≈ 2.7 µM) | 128 µg/mL (≈ 86.3 µM) | 256 µg/mL (≈ 173 µM) |  |  |  | > 5 mg/mL | 8 µg/mL (≈ 5.39 µM) | 
NCCCCNCC(=O)N(CC(=O)N(CCCCN)CC(=O)N(CC(=O)N(CCCCN)CC(=O)N(CC(=O)N(CCCCN)CC(=O)N(CC(=O)N(CCCCN)CC(=O)N(CC(N)=O)Cc1ccc(Cl)cc1)Cc1ccc(Cl)cc1)Cc1ccc(Cl)cc1)Cc1ccc(Cl)cc1)Cc1ccc(Cl)cc1 [Compound 21] (H-[Nlys][Gly(Nα-4-Cl-benzyl)][Nlys][Gly(Nα-4-Cl-benzyl)][Nlys][Gly(Nα-4-Cl-benzyl)][Nlys][Gly(Nα-4-Cl-benzyl)][Nlys][Gly(Nα-4-Cl-benzyl)]-NH2) | 2 µg/mL (≈ 1.28 µM) | 2 µg/mL (≈ 1.28 µM) | 2 µg/mL (≈ 1.28 µM) |  | 1 µg/mL (≈ 0.639 µM) | 64 µg/mL (≈ 40.9 µM) | > 512 µg/mL |  |  |  | > 5 mg/mL | 2 µg/mL (≈ 1.28 µM) | 
NCCCCNCC(=O)N(CC(=O)N(CCCCN)CC(=O)N(CC(=O)N(CCCCN)CC(=O)N(CC(=O)N(CCCCN)CC(=O)N(CC(=O)N(CCCCN)CC(=O)N(CC(N)=O)Cc1ccc(F)cc1)Cc1ccccc1)Cc1ccc(F)cc1)Cc1ccccc1)Cc1ccc(F)cc1 [Compound 24] (H-[Nlys][N(4-F-Bzl)Gly][Nlys][Nphe][Nlys][N(4-F-Bzl)Gly][Nlys][Nphe][Nlys][N(4-F-Bzl)Gly]-NH2) | 256 µg/mL (≈ 177 µM) | 512 µg/mL (≈ 354 µM) | 512 µg/mL (≈ 354 µM) |  | 4 µg/mL (≈ 2.76 µM) | 256 µg/mL (≈ 177 µM) | 512 µg/mL (≈ 354 µM) |  |  |  | > 5 mg/mL | 8 µg/mL (≈ 5.53 µM) | 
NCCCCNCC(=O)N(CC(=O)N(CCCCN)CC(=O)N(CC(=O)N(CCCCN)CC(=O)N(CC(=O)N(CCCCN)CC(=O)N(CC(=O)N(CCCCN)CC(=O)N(CC(N)=O)Cc1ccc(Cl)cc1)Cc1ccccc1)Cc1ccc(Cl)cc1)Cc1ccccc1)Cc1ccc(Cl)cc1 [Compound 25] (H-[Nlys][Gly(Nα-4-Cl-benzyl)][Nlys][Nphe][Nlys][Gly(Nα-4-Cl-benzyl)][Nlys][Nphe][Nlys][Gly(Nα-4-Cl-benzyl)]-NH2) | 16 µg/mL (≈ 10.7 µM) | 8 µg/mL (≈ 5.34 µM) | 8 µg/mL (≈ 5.34 µM) |  | 2 µg/mL (≈ 1.34 µM) | 256 µg/mL (≈ 171 µM) | 512 µg/mL (≈ 342 µM) |  |  |  | > 5 mg/mL | 1 µg/mL (≈ 0.668 µM) | 
NCCCCNCC(=O)N(CC(=O)N(CCCCN)CC(=O)N(CC(=O)N(CCCCN)CC(=O)N(CC(=O)N(CCCCN)CC(=O)N(CC(=O)N(CCCCN)CC(=O)N(CC(N)=O)Cc1ccc(I)cc1)Cc1ccccc1)Cc1ccc(I)cc1)Cc1ccccc1)Cc1ccc(I)cc1 [Compound 27] (H-[Nlys][NBzl(4-I)Gly][Nlys][Nphe][Nlys][NBzl(4-I)Gly][Nlys][Nphe][Nlys][NBzl(4-I)Gly]-NH2) | 4 µg/mL (≈ 2.26 µM) | 4 µg/mL (≈ 2.26 µM) | 4 µg/mL (≈ 2.26 µM) |  | 2 µg/mL (≈ 1.13 µM) | 128 µg/mL (≈ 72.3 µM) | > 512 µg/mL |  |  |  | > 5 mg/mL | 1 µg/mL (≈ 0.565 µM) | 
